# Measured values as given in publication PMC7756582, “Prodrugs of γ‐Alkyl‐Modified Nucleoside Triphosphates: Improved Inhibition of HIV Reverse Transcriptase” (Angewandte Chemie (International Ed. in English), 2020).
# Legend:
# [1] = Chemical hydrolysis in aqueous phosphate buffer (PBS, pH 7.3); assay type: physicochemical; settings: phosphate buffered saline (PBS); aqueous 25 mM phosphate buffer, pH 7.3, 37 °C; removal of AB group; n.h. = no hydrolysis observed through cleavage of AB-mask; read-out: PBS pH 7.3 t 1/2 (converted)
# Description: γ‐(AB,alkyl)‐NTP prodrugs 6 and γ‐alkyl‐NTPs 7 were incubated in aqueous phosphate buffer (PBS, 25 mM, pH 7.3), or were exposed to pig liver esterase (PLE) in phosphate buffer (PBS) and to human CD4^+ T‐lymphocyte cell extracts to study their stability and the product distribution. The hydrolysis mixtures were analyzed by means of analytical rp‐18‐HPLC. The calculated half‐lives of prodrugs 6 (Table 1, t 1/2) reflect the removal of the bioreversible AB group to yield γ‐alkyl‐NTPs 7. Possible hydrolysis pathways and products are summarized in Scheme 4.
# As hydrolysis products, a predominant formation of γ‐alkyl‐d4TTPs 7 and a very small amount of d4TDP […] was detected (approximately 3 %). After consumption of the starting material, no further increase of d4TDP concentration was observed. This supports the hypothesis that only the double‐γ‐esterified d4TTP prodrugs 6 were prone to a bond breakage between the γ‐ and β‐phosphate. […] In contrast to previous studies with TriPPPro‐NTPs 5 containing a second cleavable mask (first generation NTP prodrugs),[ ^23 , ^24 , ^25 ] no d4TTP was detected in these studies using 6 or 7. A side reaction occurred during the studies using compounds 7 that led to the formation of thymine by the cleavage of the glycosidic bond as reported before.[ ^19 , ^22 ]
# (§1) ProLab 300 from Schott Co.. Thermomixer: Eppendorf Thermomixer 5436 and CellMedia Thermoschüttler basic were used. […]
# Chemical hydrolysis of prodrugs of γ-(AB,alkyl) d4TTP 6 as well as the γ-alkyl-NTPs 7,15:
# Stock solutions (50mM in DMSO-d6) of compounds 6,7 were prepared. After dilution of 11 µL stock solution with 100 µL milliQ water and 189 µL DMSO-d6 to 1.9mM hydrolysis solutions the reaction was started by addition of 300 µL phosphate buffer saline (PBS, 50mM, pH 7.3). The solution was incubated at 37 C in a thermomixer. An initial aliquot (25 µL) was taken directly and analyzed by analytical HPLC at 265-266 nm. Further aliquots were taken for monitoring the kinetic hydrolysis. The exponential decay curves (pseudo-first order) based on absolute integral values were calculated with commercially available software (OriginPro 9.0G) and yielded the half-lives t1/2 of the prodrugs via one determination. […]
# The calculation of t1/2 was performed analogously to that for the chemical hydrolysis studies.
# (§2) Preparation of cell extracts: Human CD4+ T-lymphocyte CEM cells were grown in RPMI-1640-based cell culture medium to a final density of ~3·10^6 cells/ml. Then, cells were centrifuged for 10 min at 1,250 rpm at 4 °C, washed twice with cold PBS, and the pellet was re-suspended at 10^8 cells/ml and sonicated (Hielscher Ultrasound Techn., 100% amplitude, 3·times for 10 sec) to destroy cell integrity. The resulting cell suspension was then centrifuged at 10,000 rpm to remove cell debris, and the supernatant divided in aliquots before being frozen at -80 C and used.
# (1 picture or pasted object on this page, not shown here)
# [2] = Enzyme-catalyzed hydrolysis in human CD4+ T-lymphocyte CEM cell extracts; assay type: in vitro ADME; settings: for half-life at 0.86 mM: CEM/0 cell extracts (CD4+ T-lymphocytes), human CD4+ T-lymphocyte CEM cell extracts, 37 °C, read-out: CEM/0 cell extracts t 1/2 (converted)
# Description: The stability of prodrugs 6 and the γ‐alkyl‐NTPs 7 was further investigated in human CD4 ^+ T‐lymphocyte CEM cell extracts. […] Thus, an enzymatic cleavage reaction took place. Half‐lives as low as 0.4 h (6 az) to 5.2 h (6 dz) were determined. […] This is in accordance to our previous results for the DiPPro‐[ ^17 , ^18 ] or the TriPPPro‐compounds 5.[ ^22 , ^23 ] In all cases we observed the predominant formation of γ‐alkyl‐d4TTPs 7 and d4TDP 2 d in very low concentration (Figure 2 B) but no NTP formation was detected, in contrast to the studies using the previously described TriPPPro compounds 5.[ ^23 , ^24 ] However, the difference to the compounds bearing long lipophilic acyl groups was not very pronounced (2‐ to 3‐fold). In the case of γ‐(AB‐C4,alkyl‐C18)‐d4TTP 6 cz, γ‐C18‐d4TTP 7 z was detected as the main product. After 8 h incubation, the ratio of γ‐C18‐d4TTP 7 z and d4TDP 2 d was 5:1. This was in sharp contrast to the studies performed with TriPPPro compounds 5.[ ^23 , ^24 ] There, it was almost impossible to detect significant concentrations of d4TTP due to its fast dephosphorylation to form first d4TDP and finally d4TMP 2 m. […] The formation of thymine or d4TTP 2 t from γ‐C18‐d4TTP 7 z was not detected (Supporting Information, Figure SI2).
# as §1
# Enzyme-catalyzed hydrolysis of γ-(AB,alkyl)-d4TTPs 6, γ-alkyl-d4TTPs 7,15 and TriPPPros 5 in CEM cell extracts:
# 18 µL of the appropriate 50 mM DMSO-d6 stock solution was diluted to 6.0 mM hydrolysis solution by addition of 132.0 µL DMSO-d6.
# 7-10 different samples including 10 µL water and 10 µL hydrolysis solution were prepared in 2 mL Eppendorf® vials. The reaction was started by addition of 50 µL human CEM cell extract and the mixture was incubated at 37 °C for different time periods. The reactions were stopped by addition of 150 μL MeOH. The solution was kept on ice for 5 min followed by centrifugation for 5 min (13000 rpm).
# The supernatants were filtered (Chromafil® RC-20/15 MS, 0.2 μm) and stored in liquid nitrogen. When testing, the samples were defrosted and injection volume with 80 μL was used for HPLC analysis. The calculation of t1/2 was performed analogously to that for the chemical hydrolysis studies.
# as §2
# HIV-1(IIIB) = test: Anti-HIV activity assay, HIV-1-infected wild-type CEM/0 cell cultures; assay type: cell-based; settings: Human immunodeficiency virus 1, IIIB, CCRF-CEM; wild-type CEM/0 cells, HIV-1; mean±SD, n=2-3; read-out: EC50 CEM/0 HIV-1
# Description: (§3) γ‐(AB,alkyl)‐d4TTP prodrugs 6 and the γ‐alkyl‐d4TTPs 7 were evaluated for their ability to inhibit the replication of HIV in HIV‐1‐ or HIV‐2‐infected wild‐type CEM/0 as well as mutant thymidine‐kinase‐deficient CEM cell cultures (CEM/TK^−). For comparison, two TriPPPro derivatives 5 were also included in this assay.
# (§4) Anti-HIV activity assay: Inhibition of HIV-1(IIIB)- and HIV-2(ROD)-induced cytopathicity in wild-type CEM/0 and thymidine kinase-deficient CEM/TK- cell cultures was measured in microtiter 96-well plates containing ~3·105 CEM cells/mL infected with 100 CCID50 of HIV per milliliter and containing appropriate dilutions of the test compounds. After 4−5 days of incubation at 37 °C in a CO2-controlled humidified atmosphere, CEM giant (syncytium) cell formation was examined microscopically. […]
# (§5) was defined as the compound concentration required to inhibit HIV-induced giant cell formation by 50%. […]
# (§6) The result was visualized by fluorescence imaging. […]
# as §6
# HIV-2(ROD) [3] = test: Anti-HIV activity assay, HIV-2-infected wild-type CEM/0 cell cultures; assay type: cell-based; settings: Human immunodeficiency virus 2, CCRF-CEM, read-out: EC50 CEM/0 HIV-2
# Description: as §3, §4, §5, §6, §6
# HIV-2(ROD) [4] = test: Anti-HIV activity assay, HIV-2-infected thymidine-kinase-deficient CEM/TK- cell cultures; assay type: cell-based; settings: thymidine-kinase-deficient CEM/TK− cells, HIV-2, mean±SD, n=2-3, read-out: EC50 CEM/TK− HIV-2
# Description: as §3, §4, §5, §6, §6
# [5] = Cytotoxicity: inhibition of CD4+ T-cell (CEM) proliferation; assay type: cell-based; settings: human, CEM/0 cells (CD4+ T-cells), 50 % cytostatic concentration, mean±SD, n=2-3
# [6] = wild-type CEM/0 cells, HIV-2, mean±SD, n=2-3
Compound,half-life at 0.92 mM [1] [days],half-life at 0.86 mM [2] [min],EC50 (HIV-1(IIIB)) [nM],EC50 (HIV-2(ROD) [3]; [6]) [nM],EC50 (HIV-2(ROD) [4]; Human immunodeficiency virus 2) [nM],CC50 [5] [µM],EC50 (HIV-2(ROD) [3]) [nM],EC50 (HIV-2(ROD) [4]) [nM],EC50 (HIV-2(ROD) [4]; listed as d4T 1) [nM],"stability in cell extracts (in words) ([2]; CEM cell extracts, incubation up to 30 h)"
CCCCCCCCCCCCCCCOP(=O)(OCc1ccc(OC(=O)CCCC)cc1)OP(=O)(O)OP(=O)(O)OCC1C=CC(n2cc(C)c(=O)[nH]c2=O)O1 (stereo not drawn) [6 cy],8.21,204,250,230 ± 180,390 ± 300,21 ± 7,–,–,–,–
CCCCCCCCCCCCCCCOP(=O)(OCc1ccc(OC(=O)CCCCCC)cc1)OP(=O)(O)OP(=O)(O)OCC1C=CC(n2cc(C)c(=O)[nH]c2=O)O1 (stereo not drawn) [6 dy],8.83,216,180 ± 10,160 ± 110,920 ± 120,18 ± 4,–,–,–,–
CCCCCCCCCCCCCCCCCCOP(=O)(OCc1ccc(OC(=O)CCCCCC)cc1)OP(=O)(O)OP(=O)(O)OCC1C=CC(n2cc(C)c(=O)[nH]c2=O)O1 (stereo not drawn) [6 dz],11.2,312,170,210 ± 60,760 ± 110,27 ± 4,–,–,–,–
CCCCCCCCCCCCCCCOP(=O)(OCc1ccc(OC(=O)CCCCCCCCCCCCCCC)cc1)OP(=O)(O)OP(=O)(O)OCC1C=CC(n2cc(C)c(=O)[nH]c2=O)O1 (stereo not drawn) [6 ey],10.4,150,620 ± 300,860 ± 40,3900 ± 3400,48 ± 31,–,–,–,–
"Cc1cn([C@H]2C=C[C@@H](CO)O2)c(=O)[nH]c1=O [Compound 1, 3′‐deoxy‐2′,3′‐didehydrothymidine, reference compound]",–,–,430 ± 250,–,–,> 50,220 ± 50,> 50000,150000,–
"Cc1cn([C@H]2C[C@H](O)[C@@H](COP(=O)(O)OP(=O)(O)OP(=O)(O)O)O2)c(=O)[nH]c1=O [TTP, reference compound]",–,–,–,–,–,–,–,–,–,rapidly enzymatically dephosphorylated
